According to ChEMBL document CHEMBL1136449, “A new class of glycogen phosphorylase inhibitors” (Bioorg Med Chem Lett, 2003):

Assays:
[1] = target: T1, Glycogen phosphorylase, muscle form (Homo sapiens, UniProt P11217); assay: Inhibitory activity against HMGP(human muscle glycogen phosphorylase)
T1 sequence (P11217 whole entry): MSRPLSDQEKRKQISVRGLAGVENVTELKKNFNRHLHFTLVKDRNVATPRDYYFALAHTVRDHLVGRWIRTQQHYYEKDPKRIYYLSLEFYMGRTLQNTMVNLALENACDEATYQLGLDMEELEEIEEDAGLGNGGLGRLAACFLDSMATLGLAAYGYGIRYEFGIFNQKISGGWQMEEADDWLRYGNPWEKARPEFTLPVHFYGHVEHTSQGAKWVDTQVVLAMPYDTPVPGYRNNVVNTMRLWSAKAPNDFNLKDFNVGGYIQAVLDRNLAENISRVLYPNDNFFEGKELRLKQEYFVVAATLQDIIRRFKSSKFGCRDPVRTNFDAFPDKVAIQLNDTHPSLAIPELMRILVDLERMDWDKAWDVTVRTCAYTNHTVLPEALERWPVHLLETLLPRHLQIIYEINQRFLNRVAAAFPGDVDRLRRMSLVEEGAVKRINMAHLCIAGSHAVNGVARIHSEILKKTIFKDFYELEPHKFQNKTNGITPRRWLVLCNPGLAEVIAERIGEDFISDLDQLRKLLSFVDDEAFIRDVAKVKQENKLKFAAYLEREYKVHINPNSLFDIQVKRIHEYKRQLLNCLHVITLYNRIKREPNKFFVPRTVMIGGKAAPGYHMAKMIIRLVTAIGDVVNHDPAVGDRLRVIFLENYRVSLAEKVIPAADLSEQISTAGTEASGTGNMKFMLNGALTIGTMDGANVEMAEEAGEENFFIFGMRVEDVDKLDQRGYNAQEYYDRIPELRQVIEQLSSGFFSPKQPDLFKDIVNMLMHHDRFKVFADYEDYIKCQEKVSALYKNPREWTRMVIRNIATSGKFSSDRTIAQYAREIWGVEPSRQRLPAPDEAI

[2] = target: T2, Glycogen phosphorylase, liver form (Homo sapiens, UniProt P06737); assay: Inhibitory activity against HLGP(human liver glycogen phosphorylase)
T2 sequence (P06737 whole entry): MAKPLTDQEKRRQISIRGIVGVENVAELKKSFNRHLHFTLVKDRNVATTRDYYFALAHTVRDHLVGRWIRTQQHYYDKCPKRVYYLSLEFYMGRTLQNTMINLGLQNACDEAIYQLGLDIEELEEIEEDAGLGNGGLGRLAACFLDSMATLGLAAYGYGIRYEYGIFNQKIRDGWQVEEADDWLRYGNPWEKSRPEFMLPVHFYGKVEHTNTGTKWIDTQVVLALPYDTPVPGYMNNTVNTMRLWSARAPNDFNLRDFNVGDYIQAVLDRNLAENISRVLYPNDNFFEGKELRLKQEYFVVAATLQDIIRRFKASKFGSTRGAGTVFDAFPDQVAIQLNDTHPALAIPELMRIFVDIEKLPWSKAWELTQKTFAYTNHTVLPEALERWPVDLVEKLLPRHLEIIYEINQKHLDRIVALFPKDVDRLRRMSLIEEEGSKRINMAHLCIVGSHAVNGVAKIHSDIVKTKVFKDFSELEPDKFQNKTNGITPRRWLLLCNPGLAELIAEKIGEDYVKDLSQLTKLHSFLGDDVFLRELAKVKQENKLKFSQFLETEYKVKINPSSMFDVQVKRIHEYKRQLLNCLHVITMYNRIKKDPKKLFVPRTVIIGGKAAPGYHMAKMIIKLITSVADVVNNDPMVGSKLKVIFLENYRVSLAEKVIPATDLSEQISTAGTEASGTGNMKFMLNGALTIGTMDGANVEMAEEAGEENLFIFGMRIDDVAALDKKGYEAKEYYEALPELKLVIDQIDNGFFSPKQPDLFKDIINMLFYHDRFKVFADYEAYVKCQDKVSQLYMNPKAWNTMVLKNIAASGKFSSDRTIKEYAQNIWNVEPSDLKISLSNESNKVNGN

[3] = target: T3, Glycogen phosphorylase, liver form (Rattus norvegicus, UniProt P09811); assay: Inhibitory activity against rat liver glycogen phosphorylase
T3 sequence (P09811 whole entry): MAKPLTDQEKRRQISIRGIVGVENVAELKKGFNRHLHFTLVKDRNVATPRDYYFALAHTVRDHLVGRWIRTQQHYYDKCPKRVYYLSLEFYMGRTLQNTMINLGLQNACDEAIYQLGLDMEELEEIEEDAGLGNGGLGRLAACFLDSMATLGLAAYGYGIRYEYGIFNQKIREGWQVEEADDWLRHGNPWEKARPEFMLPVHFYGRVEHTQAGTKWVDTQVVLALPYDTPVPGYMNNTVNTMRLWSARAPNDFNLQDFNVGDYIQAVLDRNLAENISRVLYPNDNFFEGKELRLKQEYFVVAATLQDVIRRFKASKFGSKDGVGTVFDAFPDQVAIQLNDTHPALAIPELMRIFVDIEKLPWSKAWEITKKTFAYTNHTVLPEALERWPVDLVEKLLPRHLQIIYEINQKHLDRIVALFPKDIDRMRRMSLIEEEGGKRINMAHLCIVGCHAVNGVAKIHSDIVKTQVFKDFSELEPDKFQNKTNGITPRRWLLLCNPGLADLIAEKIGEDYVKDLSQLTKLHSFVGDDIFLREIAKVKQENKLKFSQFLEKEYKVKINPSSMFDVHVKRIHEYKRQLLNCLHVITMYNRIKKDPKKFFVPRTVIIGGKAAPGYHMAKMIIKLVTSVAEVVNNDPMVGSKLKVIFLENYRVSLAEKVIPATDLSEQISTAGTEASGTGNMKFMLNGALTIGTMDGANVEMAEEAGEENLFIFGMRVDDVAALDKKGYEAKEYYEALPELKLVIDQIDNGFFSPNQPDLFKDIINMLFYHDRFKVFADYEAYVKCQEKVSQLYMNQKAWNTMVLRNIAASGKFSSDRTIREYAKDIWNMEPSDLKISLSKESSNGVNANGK

[4] = target: T4, Glycogen phosphorylase, liver form (Mus musculus, UniProt Q9ET01); assay: Inhibitory activity against mouse liver glycogen phosphorylase
T4 sequence (Q9ET01 whole entry): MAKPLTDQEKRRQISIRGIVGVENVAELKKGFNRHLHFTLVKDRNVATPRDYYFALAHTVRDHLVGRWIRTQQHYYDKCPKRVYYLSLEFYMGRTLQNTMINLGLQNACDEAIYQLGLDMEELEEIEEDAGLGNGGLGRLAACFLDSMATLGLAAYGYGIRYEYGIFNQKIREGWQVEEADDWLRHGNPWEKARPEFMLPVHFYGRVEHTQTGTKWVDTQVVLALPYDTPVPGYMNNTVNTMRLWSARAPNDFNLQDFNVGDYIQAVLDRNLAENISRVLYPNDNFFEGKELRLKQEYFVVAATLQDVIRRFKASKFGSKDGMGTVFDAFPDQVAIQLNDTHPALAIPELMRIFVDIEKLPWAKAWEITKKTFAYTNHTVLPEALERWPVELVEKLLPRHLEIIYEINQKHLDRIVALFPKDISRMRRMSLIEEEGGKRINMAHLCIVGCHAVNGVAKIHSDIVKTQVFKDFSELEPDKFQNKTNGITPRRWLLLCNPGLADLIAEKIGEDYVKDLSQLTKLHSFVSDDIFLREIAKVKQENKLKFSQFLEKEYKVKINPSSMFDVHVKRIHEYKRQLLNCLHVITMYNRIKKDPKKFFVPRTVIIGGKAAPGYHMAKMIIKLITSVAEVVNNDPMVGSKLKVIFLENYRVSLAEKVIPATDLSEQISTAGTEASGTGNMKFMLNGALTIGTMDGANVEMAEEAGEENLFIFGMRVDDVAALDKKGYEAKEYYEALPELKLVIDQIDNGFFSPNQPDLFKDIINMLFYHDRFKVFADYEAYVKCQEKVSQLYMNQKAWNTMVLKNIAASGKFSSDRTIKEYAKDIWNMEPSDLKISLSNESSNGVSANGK

[5] = Bioavailability in male mice, 2mg/kg oral and 1 mg/kg intravenous dose; format: ADME, organism-based; conditions: mouse, in vivo
[6] = Half-life in male mice after 1 mg/kg intravenous dose; format: ADME, organism-based; design: dose 1 mg/kg, route intravenous; conditions: mouse, in vivo
[7] = Cmax in male mice after 2 mg/kg oral dose; format: ADME, organism-based; design: dose 2 mg/kg, route oral; conditions: mouse, in vivo

| SMILES | IC50 [1] [nM] | IC50 [2] [nM] | IC50 [3] [nM] | IC50 [4] [nM] | bioavailability [5] [%] | half-life [6] [h] | Cmax [7] [nM] |
| --- | --- | --- | --- | --- | --- | --- | --- |
| O=C(Nc1cc(F)ccc1Oc1ccc(C(=O)O)c(C(=O)O)c1)c1cc([N+](=O)[O-])ccn1 | 109 | 13 |  |  |  |  |  |
| O=C(Nc1cc2ccccc2cc1Oc1ccc(C(=O)O)c(C(=O)O)c1)c1cc(C(F)(F)F)ccn1 | 80 | 12 |  |  |  |  |  |
| O=C(Nc1cc2ccccc2cc1Oc1ccc(C(=O)O)c(C(=O)O)c1)c1cc(Cl)ccn1 | 12 | 2 |  |  |  |  |  |
| Cc1ccnc(C(=O)Nc2cc3ccccc3cc2Oc2ccc(C(=O)O)c(C(=O)O)c2)c1 | 57 | 10 |  |  |  |  |  |
| O=C(Nc1cc(F)ccc1Oc1ccc(C(=O)O)c(C(=O)O)c1)c1cc(Cl)ccn1 | 647 | 78 |  |  |  |  |  |
| CCc1ccnc(C(=O)Nc2cc3ccccc3cc2Oc2ccc(C(=O)O)c(C(=O)O)c2)c1 | 29 | 4 |  |  |  |  |  |
| O=C(Nc1cc2ccccc2cc1Oc1ccc(C(=O)O)c(C(=O)O)c1)c1cc([N+](=O)[O-])ccn1 | 3 | 1 |  |  |  |  |  |
| O=C(Nc1ccccc1Oc1ccc(C(=O)O)c(C(=O)O)c1)c1cc(I)ccn1 | 468 | 39 |  |  |  |  |  |
| O=C(Nc1c(F)cccc1Oc1ccc(C(=O)O)c(C(=O)O)c1)c1cc([N+](=O)[O-])ccn1 | 9 | 1 |  |  |  |  |  |
| O=C(Nc1c(F)cccc1Oc1ccc(C(=O)O)c(C(=O)O)c1)c1cccc([N+](=O)[O-])c1 | 1860 | 250 | 302 | 207 |  |  |  |
| COc1ccnc(C(=O)Nc2cc3ccccc3cc2Oc2ccc(C(=O)O)c(C(=O)O)c2)c1 | 12 | 2 |  |  |  |  |  |
| O=C(Nc1ccccc1Oc1ccc(C(=O)O)c(C(=O)O)c1)c1cc([N+](=O)[O-])ccn1 | 25 | 3 |  |  |  |  |  |
| N#Cc1ccnc(C(=O)Nc2ccccc2Oc2ccc(C(=O)O)c(C(=O)O)c2)c1 | 167 | 16 | 19 | 14 |  |  |  |
| O=C(Nc1ccccc1Oc1ccc(C(=O)O)c(C(=O)O)c1)c1cc(Cl)ccn1 | 181 | 17 | 16 | 14 |  |  |  |
| COc1ccnc(C(=O)Nc2ccccc2Oc2ccc(C(=O)O)c(C(=O)O)c2)c1 | 200 | 20 | 24 | 18 |  |  |  |
| O=C(Nc1c(F)cccc1Oc1ccc(C(=O)O)c(C(=O)O)c1)c1cc(Cl)ccn1 | 60 | 10 | < 9 | < 9 | 4.1 | 1 | 44 |
| O=C(Nc1cc2ccccc2cc1Oc1ccc(C(=O)O)c(C(=O)O)c1)c1ccccn1 | 844 | 167 |  |  |  |  |  |
| COc1ccnc(C(=O)Nc2c(F)cccc2Oc2ccc(C(=O)O)c(C(=O)O)c2)c1 | 110 | 11 |  |  |  |  |  |
| O=C(Nc1cc2ccccc2cc1Oc1ccc(C(=O)O)c(C(=O)O)c1)c1ccccc1 | 12300 | 2880 |  |  |  |  |  |
| O=C(Nc1cc2ccccc2cc1Oc1ccc(C(=O)O)c(C(=O)O)c1)c1cccc([N+](=O)[O-])c1 | 140 | 23 |  |  |  |  |  |
